Measurements taken from patent US6476056B2, “Heterocycle substituted aryloxyaniline derivatives and their use as MDR ligands” (Taisho Pharmaceutical Co., Ltd., priority 1997, dated 2002).
pIC50: −log10 of the molar value. Where a name gives a salt, the structure may show the parent alone.

Biological target: T1, MDR (Rattus norvegicus, UniProt P16257)
T1 construct: Crude mitochondria fractions prepared from rat cerebral cortex were used as a receptor sample; from tissue; host or cells: rat cerebral cortex, crude mitochondria fraction
Test: MDR receptor binding assay ([3H]PK11195 displacement)
Details: 50% inhibition of [3H]PK11195 (2 nM) binding; crude mitochondria fraction from rat cerebral cortex; 4° C., 90 minutes
Method: Experiment [MDR Receptor Binding Assay]
Crude mitochondria fractions prepared from rat cerebral cortex were used as a receptor sample, and [^3H]PK11195 was used as a [^3H]-labeled ligand.
A binding assay using the [^3H]-labeled ligand was carried out according to the following method as described in Journal of Pharmacology and Experimental Therapeutics, 262, 971(1992).
Preparation of Receptor Sample: Rat cerebral cortex was homogenized using a Teflon-coated homogenizer in a 10 mM HEPES buffer (pH 7.4) containing 0.32 M sucrose in ten volumes of the wet weight. The homogenate was centrifuged at 900×g for 10 minutes, and the resulting supernatant was centrifuged at 9,000×g for 10 minutes. The precipitate was suspended in a HEPES buffer to give a protein concentration of 1 mg/ml, and centrifuged at 12,000×g for 10 minutes. The resulting precipitate was suspended in a 50 mM HEPES buffer (pH 7.4) to give a crude mitochondria fraction.
MDR Binding Assay: Mitochondria sample (1.0 mg protein/ml), [^3H]PK11195 (2 nM) and the test drug were reacted at 4° C. for 90 minutes. After completion of the reaction, the reaction mixture was filtered with suction through a glass filter (GF/B) treated with 0.3% polyethyleneimine, and the radioactivity on the filter was measured by a liquid scintillation spectrometer.
The binding at the reaction in the presence of 10 μM PK11195 was defined as non-specific binding of [3H]PK11195, and the difference between total binding and non-specific binding was defined as specific binding.

Row | pIC50 | Structure (SMILES)
1 | 9.10 | COc1ccccc1CN(C(C)=O)c1cc(F)ccc1Oc1ccccc1 [Compound 117]
2 | 9.55 | COc1cccc(CN(C(C)=O)c2ccccc2Oc2ccccc2)c1OC [Compound 015]
3 | 9.55 | COc1ccccc1CN(C(C)=O)c1ccccc1Oc1ccc(F)cc1 [Compound 109]
4 | 9.67 | CCCc1ccccc1CN(C(C)=O)c1ccccc1Oc1ccccc1 [Compound 050, N-Acetyl-N-(2-propylbenzyl)-2-phenoxyaniline]
5 | 9.79 | CC(=O)N(Cc1ccccc1OCCC(C)C)c1ccccc1Oc1ccccc1 [Compound 011]
6 | 9.71 | C=Cc1ccccc1CN(C(C)=O)c1ccccc1Oc1ccccc1 [Compound 051]
7 | 8.53 | CC(=O)N(Cc1ccccc1)c1ccccc1Oc1ccccc1 [Compound 056]
8 | 9.79 | COc1ccc(Oc2ccccc2N(Cc2ccccc2OC)C(C)=O)cc1 [Compound 105]
9 | 10.03 | CCC(=O)N(Cc1ccccc1OC)c1ccccc1Oc1ccccc1 [Compound 064]
10 | 9.14 | COc1ccccc1CN(C(C)=O)c1ccccc1Oc1ccccc1OC [Compound 103]
11 | 8.01 | COc1ccccc1N(C(C)=O)c1ccccc1Oc1ccccc1 [Compound 013, N-Acetyl-N-(2-methoxyphenyl)-2-phenoxyaniline]
12 | 9.10 | CCOc1ccccc1CN(C(C)=O)c1ccc(Cl)cc1Oc1ccccc1 [Compound 004]
13 | 10.19 | COC(=O)c1ccccc1CN(C(C)=O)c1ccccc1Oc1ccccc1 [Compound 040, N-acetyl-N-(2-methoxycarbonylbenzyl)-2-phenoxyaniline]
14 | 8.74 | CCOc1ccccc1CN(C(=O)NC)c1ccccc1Oc1ccccc1 [Compound 091]
15 | 8.33 | COc1ccccc1CN(C(=O)c1ccccc1)c1ccccc1Oc1ccccc1 [Compound 079]
16 | 8.74 | CCCCCC(=O)N(Cc1ccccc1OC)c1ccccc1Oc1ccccc1 [Compound 075]
17 | 9.83 | CCCCCOc1ccccc1CN(C(C)=O)c1ccccc1Oc1ccccc1 [Compound 010]
18 | 8.71 | CC(=O)N(Cc1cccc(Cl)c1)c1ccccc1Oc1ccccc1 [Compound 030]
19 | 9.58 | CC(=O)c1ccccc1CN(C(C)=O)c1ccccc1Oc1ccccc1 [Compound 047, N-Acetyl-N-(2-acetylbenzyl)-2-phenoxyaniline]
20 | 9.46 | COc1ccccc1CN(C(C)=O)c1cc(C)ccc1Oc1ccccc1 [Compound 124]
21 | 9.75 | COc1ccc(OC)c(CN(C(C)=O)c2ccc(Cl)cc2Oc2ccccc2)c1 [Compound 022]

Row | pIC50 | Structure (SMILES)
22 | 8.41 | COc1ccccc1CN(C(=O)CO)c1ccccc1Oc1ccccc1 [Compound 085, N-Hydroxyacetyl-N-(2-methoxybenzyl)-2-phenoxyaniline]
23 | 8.70 | COc1ccccc1CN(C(C)=O)c1cc(Cl)ccc1Oc1ccccc1 [Compound 121]
24 | 9.59 | COc1cc(CN(C(C)=O)c2ccccc2Oc2ccccc2)cc(OC)c1 [Compound 025]
25 | 8.90 | CC(=O)N(Cc1ccccc1N1CCCC1)c1ccccc1Oc1ccccc1 [Compound 054, N-Acetyl-N-(2-pyrrolidinobenzyl)-2-phenoxyaniline monohydrochloride]
26 | 9.46 | COc1cccc(Oc2ccccc2N(Cc2ccccc2OC)C(C)=O)c1 [Compound 104]
27 | 8.97 | CCCOc1ccccc1CN(C(=O)CC)c1ccc(Cl)cc1Oc1ccccc1 [Compound 067]
28 | 9.02 | COc1ccccc1CN(C(=O)C1CC1)c1ccccc1Oc1ccccc1 [Compound 076]
29 | 9.06 | CC(=O)N(Cc1ccccc1OC(C)C)c1ccc(Cl)cc1Oc1ccccc1 [Compound 008]
30 | 9.30 | COc1ncccc1CN(C(C)=O)c1ccccc1Oc1ccccc1 [Compound 061]
31 | 8.45 | COc1ccccc1CN(C(C)=O)c1ccc(Oc2ccccc2)cc1Oc1ccccc1 [Compound 127]
32 | 8.25 | COc1ccccc1CN(C(=O)C1CCC1)c1ccccc1Oc1ccccc1 [Compound 077]
33 | 9.30 | COC(=O)N(Cc1ccccc1OC)c1ccccc1Oc1ccccc1 [Compound 098, N-(2-Methoxybenzyl)-N-methoxycarbonyl-2-phenoxyaniline]
34 | 9.55 | COc1ccccc1CN(C(C)=O)c1ccccc1Oc1cccc(C)c1 [Compound 101]
35 | 8.37 | CC(=O)N(Cc1ccccc1C)c1ccccc1Oc1ccccc1 [Compound 049]
36 | 8.42 | CNC(=O)N(Cc1cc(OC)ccc1OC)c1ccccc1Oc1ccccc1 [Compound 095, N-(2,5-Dimethoxybenzyl)-N-(N-methylaminocarbonyl)-2-phenoxyaniline]
37 | 9.06 | CCOC(=O)N(Cc1ccccc1OC)c1ccccc1Oc1ccccc1 [Compound 099]
38 | 9.79 | CCOc1ccccc1CN(C=O)c1ccccc1Oc1ccccc1 [Compound 088]
39 | 9.03 | CCCCCOc1ccccc1CN(C(=O)NC)c1ccccc1Oc1ccccc1 [Compound 094]
40 | 9.18 | COc1ccc(CN(C(C)=O)c2ccccc2Oc2ccccc2)cc1 [Compound 002]
41 | 9.95 | CC(=O)N(Cc1ccccc1OCC(C)C)c1ccccc1Oc1ccccc1 [Compound 009]

Continued, compound first:

Row | Structure (SMILES) | pIC50
42 | COc1ccc(CN(C(C)=O)c2ccccc2Oc2ccccc2)c(OC)c1 [Compound 016, N-Acetyl-N-(2,4-dimethoxybenzyl)-2-phenoxyaniline] | 9.14
43 | COc1cccnc1CN(C(C)=O)c1ccccc1Oc1ccccc1 [Compound 060] | 9.02
44 | COc1ccccc1CN(C(N)=O)c1ccccc1Oc1ccccc1 [Compound 089, N-Aminocarbonyl-N-(2-methoxybenzyl)-2-phenoxyaniline] | 8.45
45 | COc1ccccc1CN(C(C)=O)c1ccc(F)cc1Oc1ccccc1 [Compound 116] | 9.46
46 | CC(=O)N(Cc1ccc(N(C)C)cc1)c1ccccc1Oc1ccccc1 [Compound 055] | 8.74
47 | CSc1ccccc1CN(C(C)=O)c1ccccc1Oc1ccccc1 [Compound 034] | 9.75
48 | COc1ccccc1CCN(C(C)=O)c1ccccc1Oc1ccccc1 [Compound 012, N-Acetyl-N-[2-(2-methoxyphenyl)ethyl]-2-phenoxyaniline] | 9.34
49 | COc1ccccc1CN(C(=O)C(C)C)c1ccccc1Oc1ccccc1 [Compound 072] | 8.45
50 | CCOc1ccccc1CN(C(C)=O)c1ccccc1Oc1ccccc1 [Compound 003] | 9.91
51 | CCOc1ccccc1CN(C(=O)CC)c1ccc(Cl)cc1Oc1ccccc1 [Compound 066] | 9.03
52 | COc1ccccc1CN(C(=O)CCl)c1ccccc1Oc1ccccc1 [Compound 081, N-chloroacetyl-N-(2-methoxybenzyl)-2-phenoxyaniline] | 9.46
53 | COc1ccccc1CN(C(=O)C(F)(F)F)c1ccccc1Oc1ccccc1 [Compound 080] | 8.33
54 | COc1ccccc1CN(C(C)=O)c1ccc(Cl)cc1Oc1ccccc1 [Compound 120] | 9.71
55 | CNC(=O)N(Cc1ccccc1OC(C)C)c1ccccc1Oc1ccccc1 [Compound 093] | 9.06
56 | CC(=O)N(Cc1ccccc1Cl)c1ccccc1Oc1ccccc1 [Compound 029, N-Acetyl-N-(2-chlorobenzyl)-2-phenoxyaniline] | 9.31
57 | CC(=O)N(Cc1ccccc1[N+](=O)[O-])c1ccccc1Oc1ccccc1 [Compound 052, N-acetyl-N-(2-nitrobenzyl)-2-phenoxyaniline] | 8.33

Row | Structure (SMILES) | pIC50
58 | COc1ccccc1CN(C(C)=O)c1c(F)cccc1Oc1ccccc1 [Compound 118] | 9.30
59 | CCCCC(=O)N(Cc1ccccc1OC)c1ccccc1Oc1ccccc1 [Compound 073] | 8.82
60 | CC(=O)N(Cc1ccccc1C=O)c1ccccc1Oc1ccccc1 [Compound 046, N-acetyl-N-(2-formylbenzyl)-2-phenoxyaniline] | 9.42
61 | COc1ccccc1CN(C(C)=O)c1ccccc1Oc1cccc(F)c1 [Compound 108] | 9.38
62 | COc1ccccc1CN(C(C)=O)c1ccccc1Oc1ccc(F)cc1F [Compound 112] | 9.42
63 | CC(=O)N(Cc1ccc(Cl)cc1)c1ccccc1Oc1ccccc1 [Compound 031] | 8.91
64 | CCCOc1ccccc1CN(C(C)=O)c1ccccc1Oc1ccccc1 [Compound 005] | 9.93
65 | CC(=O)N(Cc1ccccc1OC(C)C)c1ccccc1Oc1ccccc1 [Compound 007, N-Acetyl-N-(2-isopropoxybenzyl)-2-phenoxyaniline] | 10.01
66 | CCCOc1ccccc1CN(C(=O)NC)c1ccccc1Oc1ccccc1 [Compound 092] | 9.14
67 | COc1ccc(OC)c(CN(C(C)=O)c2ccccc2Oc2ccccc2)c1 [Compound 017] | 10.07
68 | CC(=O)N(Cc1ccccc1F)c1ccccc1Oc1ccccc1 [Compound 032] | 8.17
69 | CNC(=O)N(Cc1ccccc1OC)c1ccccc1Oc1ccccc1 [Compound 090, N-(2-Methoxybenzyl)-N-(N-methylaminocarbonyl)-2-phenoxyaniline] | 8.33
70 | COc1ccc(OC)c(CN(C(C)=O)c2cc(F)ccc2Oc2ccccc2)c1 [Compound 021] | 9.51
71 | COc1cccc(CN(C(C)=O)c2ccccc2Oc2ccccc2)c1 [Compound 001] | 8.86
72 | COc1ccccc1C(C)N(C(C)=O)c1ccccc1Oc1ccccc1 (stereo not drawn) [Compound 014] | 8.66
